According to publication PMC6978637 (Saudi Pharmaceutical Journal : SPJ, 2019):
Values joined by “and” are separate entries in the source; they are usually repeats but may differ in a detail not shown here. Equal entries are not always repeated. Where two headings read alike, the source gives them in different places.

Legend:
[1] = tested on: NIH-3T3 cells; experiment: WST-1 cytotoxicity assay; assay type: cell-based, mouse; details: Mus musculus, NIH3T3, 48 h, read-out: NIH-3T3 Cells IC50
[2] = tested on: FGFR1; experiment: Z'-LYTE kinase enzyme inhibition assay, FGFR1; assay type: biochemical; details: for FGFR1-SI: selectivity index IC50/IC50, lowest IC50 of the compound = 1; for FGFR selectivity (in words): among FGFR1-4
[3] = molecular target: FGFR1 (Homo sapiens, UniProt P11362); experiment: Z'-LYTE kinase enzyme inhibition assay, FGFR1; assay type: biochemical
FGFR1 (Homo sapiens, UniProt P11362), sequence (P11362 22-822): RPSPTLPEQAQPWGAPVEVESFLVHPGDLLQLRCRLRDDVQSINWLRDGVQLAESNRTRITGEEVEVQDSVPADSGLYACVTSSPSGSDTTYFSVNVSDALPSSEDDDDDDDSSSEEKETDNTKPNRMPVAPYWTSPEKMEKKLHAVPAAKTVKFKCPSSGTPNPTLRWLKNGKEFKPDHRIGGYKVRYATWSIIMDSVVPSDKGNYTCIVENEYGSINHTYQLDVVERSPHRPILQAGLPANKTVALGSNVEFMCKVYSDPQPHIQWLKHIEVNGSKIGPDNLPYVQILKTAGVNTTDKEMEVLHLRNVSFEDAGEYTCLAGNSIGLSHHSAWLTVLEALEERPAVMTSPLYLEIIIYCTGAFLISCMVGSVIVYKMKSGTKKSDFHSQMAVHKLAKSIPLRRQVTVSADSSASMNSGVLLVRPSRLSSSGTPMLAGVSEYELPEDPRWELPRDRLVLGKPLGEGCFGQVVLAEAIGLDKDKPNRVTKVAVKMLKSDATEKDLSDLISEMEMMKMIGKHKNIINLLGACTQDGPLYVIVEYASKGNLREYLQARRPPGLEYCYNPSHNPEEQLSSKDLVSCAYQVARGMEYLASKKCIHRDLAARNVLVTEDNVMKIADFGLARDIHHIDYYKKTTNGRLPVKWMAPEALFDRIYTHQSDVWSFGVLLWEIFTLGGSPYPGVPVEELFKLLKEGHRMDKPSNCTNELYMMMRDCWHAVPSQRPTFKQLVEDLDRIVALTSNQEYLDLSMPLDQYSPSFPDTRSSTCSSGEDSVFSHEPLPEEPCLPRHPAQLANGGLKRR

[4] = tested on: FGFR3; experiment: biochemical; assay type: biochemical; details: for FGFR selectivity (in words): among FGFR1-4
[5] = molecular target: FGFR3 (Homo sapiens, UniProt P22607); experiment: biochemical; assay type: biochemical
FGFR3 (Homo sapiens, UniProt P22607), sequence (P22607 23-806): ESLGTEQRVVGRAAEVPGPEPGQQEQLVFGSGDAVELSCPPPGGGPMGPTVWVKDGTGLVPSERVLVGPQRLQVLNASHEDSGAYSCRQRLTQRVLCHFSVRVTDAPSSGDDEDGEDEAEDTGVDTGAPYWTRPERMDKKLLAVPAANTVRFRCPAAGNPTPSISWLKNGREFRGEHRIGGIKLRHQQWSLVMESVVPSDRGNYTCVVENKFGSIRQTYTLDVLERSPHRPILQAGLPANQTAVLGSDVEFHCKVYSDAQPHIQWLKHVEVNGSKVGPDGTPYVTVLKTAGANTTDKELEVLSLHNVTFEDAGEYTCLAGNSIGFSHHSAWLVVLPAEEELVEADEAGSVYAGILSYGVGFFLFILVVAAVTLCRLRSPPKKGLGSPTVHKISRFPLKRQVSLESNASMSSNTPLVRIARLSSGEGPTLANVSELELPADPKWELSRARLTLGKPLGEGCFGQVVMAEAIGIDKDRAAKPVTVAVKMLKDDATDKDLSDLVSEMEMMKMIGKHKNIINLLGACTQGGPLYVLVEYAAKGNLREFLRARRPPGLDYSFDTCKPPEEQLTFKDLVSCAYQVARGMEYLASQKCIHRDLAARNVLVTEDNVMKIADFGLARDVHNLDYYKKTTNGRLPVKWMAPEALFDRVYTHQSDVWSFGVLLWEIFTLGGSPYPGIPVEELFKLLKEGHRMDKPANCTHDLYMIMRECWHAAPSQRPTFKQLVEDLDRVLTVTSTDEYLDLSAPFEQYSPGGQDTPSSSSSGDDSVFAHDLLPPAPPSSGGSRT

[6] = molecular target: FGFR4 (Homo sapiens, UniProt P22455); experiment: biochemical; assay type: biochemical
FGFR4, sequence (P22455 22-802): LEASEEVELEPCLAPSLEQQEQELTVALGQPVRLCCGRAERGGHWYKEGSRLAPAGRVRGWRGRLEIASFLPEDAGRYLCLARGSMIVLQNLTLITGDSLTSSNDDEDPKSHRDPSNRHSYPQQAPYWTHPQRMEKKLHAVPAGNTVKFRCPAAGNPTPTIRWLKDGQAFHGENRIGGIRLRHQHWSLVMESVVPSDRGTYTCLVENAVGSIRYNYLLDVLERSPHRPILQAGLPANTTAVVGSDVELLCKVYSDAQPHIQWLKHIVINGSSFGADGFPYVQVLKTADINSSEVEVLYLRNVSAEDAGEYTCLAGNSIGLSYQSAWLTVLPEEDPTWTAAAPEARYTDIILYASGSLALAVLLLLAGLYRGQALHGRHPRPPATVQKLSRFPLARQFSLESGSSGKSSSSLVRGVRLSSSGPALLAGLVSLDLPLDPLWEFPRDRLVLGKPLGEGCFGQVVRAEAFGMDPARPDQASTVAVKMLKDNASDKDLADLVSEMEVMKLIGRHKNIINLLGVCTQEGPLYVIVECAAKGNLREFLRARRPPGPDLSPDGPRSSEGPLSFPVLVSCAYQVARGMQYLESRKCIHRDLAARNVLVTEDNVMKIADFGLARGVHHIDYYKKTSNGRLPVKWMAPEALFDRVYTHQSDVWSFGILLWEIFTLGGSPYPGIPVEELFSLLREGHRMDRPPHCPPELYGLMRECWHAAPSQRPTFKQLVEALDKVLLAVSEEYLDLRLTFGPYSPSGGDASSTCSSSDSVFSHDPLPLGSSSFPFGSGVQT

[7] = selectivity index IC50/IC50, lowest IC50 of the compound = 1

`O=C1Nc2ccc(-c3ccc(C(=O)N4CCCC4)cc3)cc2/C1=C\c1ccc(N2CCC(O)CC2)cc1` [Compound A12, (E)-3-[4-(4-hydroxypiperidin-1-yl)benzylidene]-5-[4-(pyrrolidine-1-carbonyl)phenyl]indolin-2-one] gave an IC50 [1] of 4960 ± 187 nM, an FGFR1-SI [2] of 28.719 and an IC50 ([3]; FGFR1-IC50) of 646 ± 10.9 nM. The “FGFR selectivity (in words)” value [4] was “for FGFR3”, the FGFR3-SI [4, 7] was 1 and the IC50 ([5]; FGFR3-IC50) was 22.5 ± 0.737 nM. It also gave an FGFR4-SI [6] of 217.749 and an IC50 [6] of 4890 ± 402 nM.
Work on `CN1CCN(c2ccc(/C=C3/C(=O)Nc4ccc(-c5ccc(C(=O)N6CCCCC6)cc5)cc43)cc2)CC1` [Compound A16, (E)-3-[4-(4-methylpiperazin-1-yl)benzylidene]-5-[4-(piperidine-1-carbonyl)phenyl]indolin-2-one] yielded an IC50 [1] of 626 ± 140 nM, an FGFR1-SI [2] of 17.919 and an IC50 ([3]; FGFR1-IC50) of 256 ± 28.1 nM. The “FGFR selectivity (in words)” value [4] was “for FGFR3”, the FGFR3-SI [4, 7] was 1 and the IC50 ([5]; FGFR3-IC50) was 14.3 nM and 14.2 nM. For the same molecule, the FGFR4-SI [6] was 1054.660 and the IC50 [6] was 15050 ± 64.1 nM.
With `O=CN1CCN(c2ccc(/C=C3/C(=O)Nc4ccc(-c5ccc(C(=O)N6CCCCC6)cc5)cc43)cc2)CC1` [Compound A28, (E)-4-{4-{ {2-oxo-5-[4-(piperidine-1-carbonyl)phenyl]indolin-3-ylidene}methyl}phenyl}piperazine-1-carbaldehyde] the IC50 [1] was 839 ± 232 nM, the FGFR1-SI [2] was 2.299 and the IC50 ([3]; FGFR1-IC50) was 77.3 ± 3.14 nM. It also gave an FGFR3-SI [4, 7] of 1, an IC50 ([5]; FGFR3-IC50) of 33.6 ± 0.574 nM and an FGFR4-SI [6] of 209.223. It also gave an IC50 [6] of 7030 ± 244 nM.
`O=CN1CCN(c2ccc(/C=C3/C(=O)Nc4ccc(-c5ccc(C(=O)N6CCCC6)cc5)cc43)cc2)CC1` [Compound A30, (E)-4-{4-{ {2-oxo-5-[4-(pyrrolidine-1-carbonyl)phenyl]indolin-3-ylidene}methyl}phenyl}piperazine-1-carbaldehyde] showed an IC50 [1] of 1590 ± 224 nM, an FGFR1-SI [2] of 1 and an IC50 ([3]; FGFR1-IC50) of 67.2 ± 2.92 nM. The FGFR3-SI [4] was 2.880, the IC50 ([5]; FGFR3-IC50) was 193 ± 39.3 nM and the FGFR4-SI [6] was 94.136. For the same molecule, the IC50 [6] was 6320 ± 322 nM.
With `CN1CCN(C(=O)c2ccc(-c3ccc4c(c3)/C(=C\c3ccc(N5CCN(C=O)CC5)cc3)C(=O)N4)cc2)CC1` [Compound A29, (E)-4-{4-{ {5-[4-(4-methylpiperazine-1-carbonyl)phenyl]-2-oxoindolin-3-ylidene}methyl}phenyl}piperazine-1-carbaldehyde] the IC50 [1] was 10100 ± 251 nM, the FGFR1-SI [2] was 48.818 and the IC50 ([3]; FGFR1-IC50) was 9130 ± 1760 nM. The FGFR3-SI [4, 7] was 1, the IC50 ([5]; FGFR3-IC50) was 187 ± 4.12 nM and the FGFR4-SI [6] was 32.626. It also gave an IC50 [6] of 6100 ± 347 nM.
In the case of `CN1CCN(C(=O)c2ccc(-c3ccc4c(c3)/C(=C\c3ccc(N5CCC(O)CC5)cc3)C(=O)N4)cc2)CC1` [Compound A11, (E)-3-[4-(4-hydroxypiperidin-1-yl)benzylidene]-5-[4-(4-methylpiperazine-1-carbonyl)phenyl]indolin-2-one], the IC50 [1] is reported as 87800 ± 4290 nM, the “FGFR selectivity (in words)” value [2] is reported as “selectivity to FGFR1 and FGFR3” and the FGFR1-SI [2] is reported as 1.464. For the same molecule, the IC50 ([3]; FGFR1-IC50) was 155 ± 6.18 nM, the FGFR3-SI [4, 7] was 1 and the IC50 ([5]; FGFR3-IC50) was 106 ± 2.8 nM. The FGFR4-SI [6] was 191.383 and the IC50 [6] was 20200 ± 259 nM.
`O=C1Nc2ccc(-c3ccc(C(=O)N4CCOCC4)cc3)cc2/C1=C\c1ccc(N2CCC(O)CC2)cc1` [Compound A9, (E)-3-[4-(4-hydroxypiperidin-1-yl)benzylidene]-5-[4-(morpholine-4-carbonyl)phenyl]indolin-2-one] was tested, and the IC50 [1] was 1140 ± 220 nM, the FGFR1-SI [2] was 3.369 and the IC50 ([3]; FGFR1-IC50) was 64.4 ± 1.23 nM. For the same molecule, the “FGFR selectivity (in words)” value [4] was “for FGFR3”, the FGFR3-SI [4, 7] was 1 and the IC50 ([5]; FGFR3-IC50) was 19.1 ± 3.22 nM. For the same molecule, the FGFR4-SI [6] was 927.339 and the IC50 [6] was 17700 ± 329 nM.
`O=CN1CCN(c2ccc(/C=C3/C(=O)Nc4ccc(-c5ccc(-c6ccc(O)cc6)cc5)cc43)cc2)CC1` [Compound A26, (E)-4-{4-{[5-(4'-hydroxy-[1,1'-biphenyl]-4-yl)-2-oxoindolin-3-ylidene]methyl}phenyl}piperazine-1-carbaldehyde] was tested, and the IC50 [1] was 2500 ± 268 nM, the FGFR1-SI [2] was 1 and the IC50 ([3]; read-out: FGFR1-IC50) was 422 ± 40.3 nM. For the same molecule, the FGFR3-SI [4] was 1.14, the IC50 ([5]; read-out: FGFR3-IC50) was 481 ± 24.1 nM and the FGFR4-SI [6] was 24.028. For the same molecule, the IC50 ([6]; read-out: FGFR4-IC50) was 10100 ± 322 nM.
In the case of `O=C1Nc2ccc(-c3ccc(C(=O)N4CCCC4)cc3)cc2/C1=C\c1ccc(N2CCOCC2)cc1` [Compound A6, (E)-3-(4-morpholinobenzylidene)-5-[4-(pyrrolidine-1-carbonyl)phenyl]indolin-2-one], the IC50 [1] is reported as 818 ± 241 nM, the “FGFR selectivity (in words)” value [2] is reported as “selectivity to FGFR1” and the FGFR1-SI [2] is reported as 1. The IC50 ([3]; FGFR1-IC50) was 49 ± 0.688 nM, the FGFR3-SI [4] was 22.297 and the IC50 ([5]; FGFR3-IC50) was 1090 ± 47.3 nM. It also gave an FGFR4-SI [6] of 16.785 and an IC50 [6] of 823 ± 108 nM.
`O=C1Nc2ccc(-c3ccc(C(=O)N4CCOCC4)cc3)cc2/C1=C\c1ccc(N2CCOCC2)cc1` [Compound A3, (E)-5-[4-(morpholin-4-carbonyl)phenyl]-3-(4-morpholinobenzylidene)indolin-2-one] gave an IC50 [1] of 3260 ± 121 nM, an FGFR1-SI [2] of 13.054 and an IC50 ([3]; FGFR1-IC50) of 686 ± 27.7 nM. For the same molecule, the “FGFR selectivity (in words)” value [4] was “for FGFR3”, the FGFR3-SI [4, 7] was 1 and the IC50 ([5]; FGFR3-IC50) was 52.5 ± 4.7 nM. For the same molecule, the FGFR4-SI [6] was 69.878 and the IC50 [6] was 3670 ± 290 nM.
`CN1CCN(c2ccc(/C=C3/C(=O)Nc4ccc(-c5ccc(C(=O)N6CCOCC6)cc5)cc43)cc2)CC1` [Compound A15, (E)-3-[4-(4-methylpiperazin-1-yl)benzylidene]-5-[4-(morpholine-4-carbonyl)phenyl]indolin-2-one] was tested, and the IC50 [1] was 9500 ± 260 nM, the “FGFR selectivity (in words)” value [2] was “selectivity to FGFR1 and FGFR3” and the FGFR1-SI [2] was 1. It also gave an IC50 ([3]; FGFR1-IC50) of 38.7 ± 0.504 nM, an FGFR3-SI [4, 7] of 1.003 and an IC50 ([5]; FGFR3-IC50) of 38.8 ± 1.35 nM. It also gave an FGFR4-SI [6] of 382.588 and an IC50 [6] of 14800 ± 449 nM.
For `O=C1Nc2ccc(-c3ccc(C(=O)N4CCCCC4)cc3)cc2/C1=C\c1ccc(N2CCC(O)CC2)cc1` [Compound A10, (E)-3-[4-(4-hydroxypiperidin-1-yl)benzylidene]-5-[4-(piperidine-1-carbonyl)phenyl]indolin-2-one], the IC50 [1] was 983 ± 158 nM, the FGFR1-SI [2] was 20.006 and the IC50 ([3]; FGFR1-IC50) was 344.7 ± 3.41 nM. The “FGFR selectivity (in words)” value [4] was “for FGFR3”, the FGFR3-SI [4, 7] was 1 and the IC50 ([5]; FGFR3-IC50) was 17.2 ± 0.419 nM. It also gave an FGFR4-SI [6] of 1343.587 and an IC50 [6] of 23200 ± 271 nM.
`CN1CCN(c2ccc(/C=C3/C(=O)Nc4ccc(-c5ccc(C(=O)N6CCCC6)cc5)cc43)cc2)CC1` [Compound A18, (E)-3-[4-(4-methylpiperazin-1-yl)benzylidene]-5-[4-(pyrrolidine-1-carbonyl)phenyl]indolin-2-one] was tested, and the IC50 [1] was 2540 ± 146 nM, the “FGFR selectivity (in words)” value [2] was “selectivity to FGFR1” and the FGFR1-SI [2] was 1. For the same molecule, the IC50 ([3]; FGFR1-IC50) was 49.2 ± 2.52 nM, the FGFR3-SI [4] was 3.167 and the IC50 ([5]; FGFR3-IC50) was 156 ± 31.3 nM. The FGFR4-SI [6] was 295.505 and the IC50 [6] was 14500 ± 211 nM.
Work on `O=CN1CCN(c2ccc(/C=C3/C(=O)Nc4ccc(-c5ccc6cc(O)ccc6c5)cc43)cc2)CC1` [Compound A25, (E)-4-{4-{[5-(6-hydroxynaphthalen-2-yl)-2-oxoindolin-3-ylidene]methyl}phenyl}piperazine-1-carbaldehyde] yielded an IC50 [1] of 24500 ± 306 nM, an FGFR1-SI [2] of 3.658 and an IC50 ([3]; FGFR1-IC50) of 3976 ± 0.354 nM. It also gave an FGFR3-SI [4, 7] of 1, an IC50 ([5]; FGFR3-IC50) of 1090 ± 477 nM and an FGFR4-SI [6] of 5.641. It also gave an IC50 [6] of 6130 ± 208 nM.
